# In patent US4112228A, “7-(D-α-Hydroxy-2-arylacetamido)-3-(2-carboxyalkyl-2,3-dihydro-s-tri azolo-[4,3-b]pyridazin-3-on-6-ylthiomethyl)-3-cephem-4-carboxylic acids and derivatives” (priority 1977, dated 1978):
# Where two headings read alike, the source gives them in different places.
# Columns and labels:
# S. aureus = assay: MIC by Steers' agar dilution method; assay type: cell-based; settings: Staphylococcus aureus, MHA, Example 10
# E. coli = assay: MIC by Steers' agar dilution method; assay type: cell-based; settings: Escherichia coli, MHA, Example 10
# Kl. pneumoniae = assay: MIC by Steers' agar dilution method; assay type: cell-based; settings: Klebsiella pneumoniae, MHA, Example 10
# Shig. flexneri = assay: MIC by Steers' agar dilution method; assay type: cell-based; settings: Shigella flexneri, MHA; Example 10
# Shig. sonnei = assay: MIC by Steers' agar dilution method; assay type: cell-based; settings: Shigella sonnei, MHA; Example 10
# Sal. typhosa = assay: MIC by Steers' agar dilution method; assay type: cell-based; settings: MHA; Example 10
# B. anthracis = assay: microbe, parasite or virus in culture; assay type: cell-based; settings: Bacillus anthracis, MHA; Example 10
# St. faecalis = assay: MIC by Steers' agar dilution method; settings: Enterococcus faecalis, MHA; Example 10
# Pr. vulgaris = assay: MIC by Steers' agar dilution method; settings: Proteus vulgaris, MHA, Example 10
# Pr. mirabilis = assay: MIC by Steers' agar dilution method; settings: Proteus mirabilis, MHA, Example 10
# Pr. morganii = assay: MIC by Steers' agar dilution method; settings: Morganella morganii, MHA, Example 10
# Pr. rettgeri = assay: MIC by Steers' agar dilution method; settings: Providencia rettgeri, MHA; Example 10
# Ps. aeruginosa = assay: MIC by Steers' agar dilution method; settings: Pseudomonas aeruginosa, MHA, Example 10
# Shig. dysenteriae = assay: MIC by Steers' agar dilution method; settings: Shigella dysenteriae, MHA; Example 10
# Serr. marcescens = assay: MIC by Steers' agar dilution method; settings: Serratia marcescens, MHA; Example 10
# Enterob. cloacae = assay: MIC by Steers' agar dilution method; settings: MHA; Example 10
# Sal. enteritidis = assay: MIC by Steers' agar dilution method; settings: Salmonella enterica, MHA, Example 10
# [1] = pH of aqueous solution of the salt; assay type: physicochemical
# [2] = Nephrotoxicity test in rabbits; settings: comparative test
structure (smiles),measurement,setting,value
"O=C(O)CCn1nc2ccc(SCC3=C(C(=O)O)N4C(=O)C(NC(=O)[C@H](O)c5ccccc5)[C@H]4SC3)nn2c1=O (single isomer, unassigned) [BB-S 527, 7-[D(-)-Mandelamido]-3-[2-(2-carboxyethyl)-2,3-dihydro-s-triazolo-[4,3-b]pyridazin-3-on-6-ylthiomethyl]-3-cephem-4-carboxylic acid]",MIC,S. aureus; BX-1633,3.1 µg/mL
same,MIC,S. aureus; Smith,1.6 µg/mL
same,MIC,S. aureus; strain not named,0.4 µg/mL
same,MIC,"E. coli; ATCC8739, ATCC 8739",12.5 µg/mL
same,MIC,"E. coli; BX-1373, read-out: MIC",6.3 µg/mL
same,MIC,"E. coli; Juhl, read-out: MIC",0.4 µg/mL
same,MIC,"E. coli; NIHJ, read-out: MIC",0.4 µg/mL
same,MIC,"E. coli; strain not named (1st of 3), read-out: MIC",0.1 µg/mL
same,MIC,"E. coli; strain not named (2nd of 3), read-out: MIC",0.1 µg/mL
same,MIC,"E. coli; strain not named (3rd of 3), read-out: MIC",6.3 µg/mL
same,MIC,Kl. pneumoniae; strain not named (1st of 4),6.3 µg/mL
same,MIC,Kl. pneumoniae; strain not named (2nd of 4),0.2 µg/mL
same,MIC,Kl. pneumoniae; strain not named (3rd of 4),0.8 µg/mL
same,MIC,Kl. pneumoniae; strain not named (4th of 4),0.4 µg/mL
same,MIC,Shig. flexneri,50 µg/mL
same,MIC,Shig. sonnei,0.1 µg/mL
same,MIC,Sal. typhosa,0.1 µg/mL
same,MIC,B. anthracis,0.4 µg/mL
same,MIC,St. faecalis,> 100 µg/mL
same,MIC,Pr. vulgaris; strain not given (1st of 2),0.1 µg/mL
same,MIC,Pr. vulgaris; strain not named (2nd of 2),12.5 µg/mL
same,MIC,Pr. mirabilis; strain not given (1st of 2),0.2 µg/mL
same,MIC,Pr. mirabilis; strain not named (2nd of 2),0.1 µg/mL
same,MIC,Pr. morganii; strain not given (1st of 2),> 100 µg/mL
same,MIC,Pr. morganii; strain not named (2nd of 2),0.4 µg/mL
same,MIC,Pr. rettgeri,0.2 µg/mL
same,MIC,Ps. aeruginosa; strain not given (1st of 2),> 100 µg/mL
same,MIC,Ps. aeruginosa; strain not named (2nd of 2),> 100 µg/mL
same,MIC,Shig. dysenteriae,0.025 µg/mL
same,MIC,Serr. marcescens,> 100 µg/mL
same,MIC,Enterob. cloacae,6.3 µg/mL
same,MIC,Sal. enteritidis,0.05 µg/mL
"O=C(O)Cn1nc2ccc(SCC3=C(C(=O)[O-])N4C(=O)C(NC(=O)[C@H](O)c5ccccc5)[C@H]4SC3)nn2c1=O.[Na+] (stereo partly drawn) [Sodium Salt of BB-S488, sodium 7-(D-mandelamido)-3-(2-carboxymethyl-2,3-dihydro-s-triazolo[4,3-b]pyridazin-3-on-6-ylthiomethyl)-3-cephem-4-carboxylate]",pH of the aqueous solution,[1]; 10% aqueous solution,3.6
"O=C(O)Cn1nc2ccc(SCC3=C(C(=O)O)N4C(=O)C(NC(=O)[C@H](O)c5ccccc5)C4SC3)nn2c1=O (stereo partly drawn) [Example 6, disodium 7-(D-mandelamido)-3-(2-carboxymethyl-2,3-dihydro-s-triazolo[4,3-b]pyridazin-3-on-6-ylthiomethyl)-3-cephem-4-carboxylylate]",pH of the aqueous solution,[1]; 5% aqueous solution,5.4
"O=C(Cc1cccs1)N[C@@H]1C(=O)N2C(C(=O)[O-])=C(C[n+]3ccccc3)CS[C@H]12 [cephaloridine, reference compound]",Nephrotoxicity,[2],severe nephrotoxicity
